Assay results taken from paper PMC6576746, “Rational discovery of dual-indication multi-target PDE/Kinase inhibitor for precision anti-cancer therapy using structural systems pharmacology” (PLoS Computational Biology, 2019).

Tests used:
Experiment in all cases: biochemical
Set-up in all cases: DiscoverX KinomeScan competition binding assay across human kinases; per cent of control at 10 and 100 uM
CDKL5 = CDKL5 (Homo sapiens, UniProt O76039); conditions: competition binding, % of control; read-out: Percent Control (100 uM Levosimendan)
Outline: (§1)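 KinomeScan competition binding was run across a human kinase panel at 10 μM and 100 μM levosimendan. Results are %control = (test − positive control)/(negative control − positive control) × 100.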

EGFR(L858R) = EGFR(L858R) (Homo sapiens, UniProt P00533, L858R); conditions: competition binding, % of control; read-out: Percent Control (100 uM Levosimendan)
Outline: as §1

EGFR(L861Q) = EGFR(L861Q) (Homo sapiens, UniProt P00533, L861Q); conditions: competition binding, % of control; read-out: Percent Control (100 uM Levosimendan)
Outline: as §1

HIPK3 = HIPK3 (Homo sapiens, UniProt Q9H422); conditions: competition binding, % of control; read-out: Percent Control (100 uM Levosimendan)
Outline: as §1

IRAK3 = IRAK3 (Homo sapiens, UniProt Q9Y616); conditions: competition binding, % of control; read-out: Percent Control (100 uM Levosimendan)
Outline: as §1

KIT-autoinhibited = KIT-autoinhibited (Homo sapiens, UniProt P10721); conditions: competition binding, % of control
KIT-autoinhibited, sequence (P10721 whole entry): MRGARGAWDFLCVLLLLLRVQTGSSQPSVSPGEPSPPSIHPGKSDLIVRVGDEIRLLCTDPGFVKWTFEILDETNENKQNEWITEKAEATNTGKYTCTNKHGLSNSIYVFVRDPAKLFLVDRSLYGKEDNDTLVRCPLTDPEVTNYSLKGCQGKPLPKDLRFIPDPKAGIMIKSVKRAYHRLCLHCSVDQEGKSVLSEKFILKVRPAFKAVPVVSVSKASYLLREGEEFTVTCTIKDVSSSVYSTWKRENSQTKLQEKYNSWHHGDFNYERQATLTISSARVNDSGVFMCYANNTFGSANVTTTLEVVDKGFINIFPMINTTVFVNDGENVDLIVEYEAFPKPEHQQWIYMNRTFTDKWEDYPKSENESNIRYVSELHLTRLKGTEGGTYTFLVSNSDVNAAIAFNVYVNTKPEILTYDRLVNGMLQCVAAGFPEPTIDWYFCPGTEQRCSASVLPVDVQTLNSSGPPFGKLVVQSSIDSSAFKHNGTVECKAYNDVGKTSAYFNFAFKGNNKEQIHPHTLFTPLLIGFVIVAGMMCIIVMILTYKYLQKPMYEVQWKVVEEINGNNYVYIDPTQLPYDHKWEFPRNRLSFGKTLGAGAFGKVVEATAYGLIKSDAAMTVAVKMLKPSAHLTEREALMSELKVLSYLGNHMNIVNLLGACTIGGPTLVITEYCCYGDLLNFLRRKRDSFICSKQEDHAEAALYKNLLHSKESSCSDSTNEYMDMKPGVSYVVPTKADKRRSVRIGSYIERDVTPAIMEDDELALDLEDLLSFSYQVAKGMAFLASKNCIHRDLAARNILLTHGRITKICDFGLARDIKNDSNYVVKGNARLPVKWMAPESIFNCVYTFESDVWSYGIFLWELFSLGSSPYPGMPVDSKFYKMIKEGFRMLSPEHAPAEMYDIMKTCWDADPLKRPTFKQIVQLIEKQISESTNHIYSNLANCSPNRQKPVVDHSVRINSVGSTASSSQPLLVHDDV
Outline: as §1

MAP4K4 = MAP4K4 (Homo sapiens, UniProt O95819); conditions: competition binding, % of control; read-out: Percent Control (100 uM Levosimendan)
Outline: as §1

NDR2 = biological target: T1, NDR2 (Homo sapiens, UniProt Q9Y2H1); conditions: competition binding, % of control; read-out: Percent Control (100 uM Levosimendan)
T1 construct: gene STK38L
Outline: as §1

OSR1 = biological target: T2, OSR1 (Homo sapiens, UniProt O95747); conditions: competition binding, % of control; read-out: Percent Control (100 uM Levosimendan)
T2 construct: gene OXSR1
Outline: as §1

PAK4 = PAK4 (Homo sapiens, UniProt O96013); conditions: competition binding, % of control; read-out: Percent Control (100 uM Levosimendan)
PAK4, sequence (O96013 whole entry): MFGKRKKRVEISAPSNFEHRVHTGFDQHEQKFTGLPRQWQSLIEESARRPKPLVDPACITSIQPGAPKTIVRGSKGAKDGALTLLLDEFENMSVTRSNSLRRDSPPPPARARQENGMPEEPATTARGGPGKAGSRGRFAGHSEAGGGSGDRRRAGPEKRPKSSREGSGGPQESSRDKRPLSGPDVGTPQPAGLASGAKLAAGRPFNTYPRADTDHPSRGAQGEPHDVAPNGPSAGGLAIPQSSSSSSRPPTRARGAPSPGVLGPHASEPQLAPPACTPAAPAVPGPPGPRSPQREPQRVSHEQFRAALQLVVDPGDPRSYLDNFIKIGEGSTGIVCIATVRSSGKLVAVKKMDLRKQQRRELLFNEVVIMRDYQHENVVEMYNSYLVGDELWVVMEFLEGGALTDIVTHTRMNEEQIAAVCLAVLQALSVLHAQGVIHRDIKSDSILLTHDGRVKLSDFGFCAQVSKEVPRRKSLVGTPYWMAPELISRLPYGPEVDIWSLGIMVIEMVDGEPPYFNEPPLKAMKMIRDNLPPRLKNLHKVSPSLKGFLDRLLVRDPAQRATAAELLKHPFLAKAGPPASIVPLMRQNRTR
Outline: as §1

PIK3CB = PIK3CB (Homo sapiens, UniProt P42338); conditions: competition binding, % of control; read-out: Percent Control (100 uM Levosimendan)
Outline: as §1

PIP5K1C = PIP5K1C (Homo sapiens, UniProt O60331); conditions: competition binding, % of control
PIP5K1C, sequence (O60331 whole entry): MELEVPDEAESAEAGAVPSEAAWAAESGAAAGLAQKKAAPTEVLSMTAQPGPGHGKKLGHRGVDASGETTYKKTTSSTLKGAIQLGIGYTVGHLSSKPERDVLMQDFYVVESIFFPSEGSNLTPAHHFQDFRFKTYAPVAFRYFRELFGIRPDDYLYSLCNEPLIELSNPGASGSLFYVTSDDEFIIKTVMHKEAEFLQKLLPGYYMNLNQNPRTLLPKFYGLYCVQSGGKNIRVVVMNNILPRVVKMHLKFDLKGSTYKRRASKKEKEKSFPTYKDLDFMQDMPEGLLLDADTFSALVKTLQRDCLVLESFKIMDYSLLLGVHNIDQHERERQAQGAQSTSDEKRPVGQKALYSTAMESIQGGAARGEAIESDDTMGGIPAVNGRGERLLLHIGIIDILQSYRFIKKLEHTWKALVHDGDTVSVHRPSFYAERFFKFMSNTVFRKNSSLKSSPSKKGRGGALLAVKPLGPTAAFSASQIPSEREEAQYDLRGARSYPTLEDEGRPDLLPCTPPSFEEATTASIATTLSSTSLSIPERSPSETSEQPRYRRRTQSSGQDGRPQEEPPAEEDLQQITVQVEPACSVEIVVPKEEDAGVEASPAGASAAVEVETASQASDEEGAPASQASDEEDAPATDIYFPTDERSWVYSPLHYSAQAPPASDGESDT
Outline: as §1

PRKCQ = PRKCQ (Homo sapiens, UniProt Q04759); conditions: competition binding, % of control
PRKCQ, sequence (Q04759 whole entry): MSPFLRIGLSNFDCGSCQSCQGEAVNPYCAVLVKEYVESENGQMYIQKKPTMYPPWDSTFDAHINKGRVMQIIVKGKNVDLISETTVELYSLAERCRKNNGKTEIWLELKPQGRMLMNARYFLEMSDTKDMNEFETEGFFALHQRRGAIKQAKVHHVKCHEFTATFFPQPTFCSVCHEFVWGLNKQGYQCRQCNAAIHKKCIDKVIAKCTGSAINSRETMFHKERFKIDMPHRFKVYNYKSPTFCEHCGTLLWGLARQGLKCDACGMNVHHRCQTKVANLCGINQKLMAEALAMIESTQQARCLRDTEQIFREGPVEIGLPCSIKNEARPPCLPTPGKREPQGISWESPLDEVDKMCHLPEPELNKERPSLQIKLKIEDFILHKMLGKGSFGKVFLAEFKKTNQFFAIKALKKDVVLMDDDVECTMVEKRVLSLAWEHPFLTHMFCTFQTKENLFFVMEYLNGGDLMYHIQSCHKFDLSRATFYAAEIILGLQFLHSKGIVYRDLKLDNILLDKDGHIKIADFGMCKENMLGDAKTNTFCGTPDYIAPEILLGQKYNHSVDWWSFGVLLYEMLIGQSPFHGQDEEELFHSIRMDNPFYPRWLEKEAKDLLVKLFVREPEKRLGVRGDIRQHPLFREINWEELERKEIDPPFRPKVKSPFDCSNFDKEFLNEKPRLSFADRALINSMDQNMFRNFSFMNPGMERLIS
Outline: as §1

RIPK2 = RIPK2 (Homo sapiens, UniProt O43353); conditions: competition binding, % of control; read-out: Percent Control (100 uM Levosimendan)
Outline: as §1

[1] = biological target: T3, RPS6KA4(Kin.Dom.2-C-terminal) (Homo sapiens, UniProt O75676); conditions: competition binding, % of control; read-out: Percent Control (100 uM Levosimendan)
T3 construct: Kin.Dom.2-C-terminal
Outline: as §1

[2] = biological target: T4, RSK1(Kin.Dom.2-C-terminal) (Homo sapiens, UniProt Q15418); conditions: competition binding, % of control; read-out: Percent Control (100 uM Levosimendan)
T4 construct: gene RPS6KA1; Kin.Dom.2-C-terminal
T4 sequence (Q15418 whole entry): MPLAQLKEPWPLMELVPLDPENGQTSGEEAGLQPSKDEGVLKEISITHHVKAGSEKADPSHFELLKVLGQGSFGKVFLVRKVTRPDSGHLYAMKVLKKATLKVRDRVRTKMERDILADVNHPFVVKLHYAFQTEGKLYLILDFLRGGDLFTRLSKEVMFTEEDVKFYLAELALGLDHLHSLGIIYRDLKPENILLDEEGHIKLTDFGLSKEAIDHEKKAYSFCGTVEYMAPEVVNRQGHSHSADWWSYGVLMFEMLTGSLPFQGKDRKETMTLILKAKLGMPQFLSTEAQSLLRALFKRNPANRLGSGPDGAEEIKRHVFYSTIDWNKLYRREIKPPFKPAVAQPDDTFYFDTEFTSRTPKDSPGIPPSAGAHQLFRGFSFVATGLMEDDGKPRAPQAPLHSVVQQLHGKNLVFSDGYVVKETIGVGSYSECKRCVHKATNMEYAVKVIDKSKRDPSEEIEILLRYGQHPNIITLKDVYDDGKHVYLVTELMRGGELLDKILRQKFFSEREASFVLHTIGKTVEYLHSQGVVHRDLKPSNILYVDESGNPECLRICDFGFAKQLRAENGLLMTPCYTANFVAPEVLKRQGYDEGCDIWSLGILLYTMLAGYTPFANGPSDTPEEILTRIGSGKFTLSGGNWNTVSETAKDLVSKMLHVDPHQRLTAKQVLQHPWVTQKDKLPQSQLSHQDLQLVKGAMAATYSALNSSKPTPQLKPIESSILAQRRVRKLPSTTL
Outline: as §1

SLK = SLK (Homo sapiens, UniProt Q9H2G2); conditions: competition binding, % of control; read-out: Percent Control (100 uM Levosimendan)
Outline: as §1

STK35 = STK35 (Homo sapiens, UniProt Q8TDR2); conditions: competition binding, % of control; read-out: Percent Control (100 uM Levosimendan)
Outline: as §1

TIE1 = TIE1 (Homo sapiens, UniProt P35590); conditions: competition binding, % of control; read-out: Percent Control (100 uM Levosimendan)
TIE1, sequence (P35590 whole entry): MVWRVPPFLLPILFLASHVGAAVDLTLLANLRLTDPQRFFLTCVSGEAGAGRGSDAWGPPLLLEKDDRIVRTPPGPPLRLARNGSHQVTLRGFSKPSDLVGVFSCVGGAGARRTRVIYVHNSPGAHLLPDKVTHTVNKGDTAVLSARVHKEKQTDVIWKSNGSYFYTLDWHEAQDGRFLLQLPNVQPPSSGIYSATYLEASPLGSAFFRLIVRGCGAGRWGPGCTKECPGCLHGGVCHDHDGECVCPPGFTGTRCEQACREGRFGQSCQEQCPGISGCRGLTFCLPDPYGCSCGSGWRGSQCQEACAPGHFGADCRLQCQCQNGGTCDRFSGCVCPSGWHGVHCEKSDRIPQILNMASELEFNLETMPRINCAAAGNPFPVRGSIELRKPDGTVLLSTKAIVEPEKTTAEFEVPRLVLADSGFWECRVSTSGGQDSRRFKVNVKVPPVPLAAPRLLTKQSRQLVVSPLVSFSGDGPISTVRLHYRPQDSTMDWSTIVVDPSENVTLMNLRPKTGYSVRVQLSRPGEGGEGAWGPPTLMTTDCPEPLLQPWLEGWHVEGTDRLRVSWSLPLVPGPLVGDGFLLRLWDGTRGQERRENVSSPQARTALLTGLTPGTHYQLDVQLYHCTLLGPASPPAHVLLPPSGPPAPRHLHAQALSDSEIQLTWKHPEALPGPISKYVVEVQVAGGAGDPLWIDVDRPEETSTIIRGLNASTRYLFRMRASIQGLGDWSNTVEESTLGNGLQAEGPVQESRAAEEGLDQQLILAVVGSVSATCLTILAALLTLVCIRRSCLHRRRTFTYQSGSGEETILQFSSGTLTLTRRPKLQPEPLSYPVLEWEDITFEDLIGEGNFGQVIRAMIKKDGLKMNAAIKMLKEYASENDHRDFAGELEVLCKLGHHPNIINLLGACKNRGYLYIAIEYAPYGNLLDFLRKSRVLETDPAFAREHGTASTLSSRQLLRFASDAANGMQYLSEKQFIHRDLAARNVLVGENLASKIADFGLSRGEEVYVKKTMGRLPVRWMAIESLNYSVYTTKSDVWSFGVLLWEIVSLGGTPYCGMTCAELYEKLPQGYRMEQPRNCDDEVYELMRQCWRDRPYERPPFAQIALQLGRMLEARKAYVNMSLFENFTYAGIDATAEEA
Outline: as §1

[3] = read-out: Percent Control (10 uM Levosimendan)
[4] = read-out: Percent Control (100 uM Levosimendan)

remaining binding at 100 µM (CDKL5): 94% | remaining binding at 100 µM (EGFR(L858R)): 63% | remaining binding at 100 µM (EGFR(L861Q)): 71% | remaining binding at 100 µM (HIPK3): 100% | remaining binding at 100 µM (IRAK3): 100% | remaining binding at 10 µM (KIT-autoinhibited; [3]): 76% | remaining binding at 100 µM (KIT-autoinhibited; [4]): 52% | remaining binding at 100 µM (MAP4K4): 100% | remaining binding at 100 µM (NDR2): 96% | remaining binding at 100 µM (OSR1): 100% | remaining binding at 100 µM (PAK4): 89% | remaining binding at 100 µM (PIK3CB): 100% | remaining binding at 10 µM (PIP5K1C; [3]): 91% | remaining binding at 100 µM (PIP5K1C; [4]): 50% | remaining binding at 10 µM (PRKCQ; [3]): 5.2% | remaining binding at 100 µM (PRKCQ; [4]): 36% | remaining binding at 100 µM (RIPK2): 91% | remaining binding at 100 µM [1]: 95% | remaining binding at 100 µM [2]: 100% | remaining binding at 100 µM (SLK): 85% | remaining binding at 100 µM (STK35): 81% | remaining binding at 100 µM (TIE1): 100%
SMILES: C[C@@H]1CC(=O)NN=C1c1ccc(NN=C(C#N)C#N)cc1 [levosimendan]
